Results reported in ChEMBL document CHEMBL1201862, “PubChem BioAssay data set” (2004).
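48-hour exposure; five concentrations; linearly interpolated endpoints. At the GI50, growth is halved.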 Active and inactive are the calls of the source. Cut-off read from the data, not from the text of the source: active = GI50 up to about 1.1 µM and inactive = higher.

Columns and labels:
Test in all cases: growth of human tumour cells (NCI), 48 h
HT-29 = system: HT-29
K562 = system: K562
LOX IMVI = system: LOX IMVI
SF-539 = system: SF-539
U-251 = system: U-251
HL-60 = system: HL-60
M19-MEL = system: M19-MEL
HOP-18 = system: HOP-18
RXF 393 = system: RXF 393
SNB-19 = system: SNB-19
KM12 = system: KM12
XF498 = system: XF498
DLD-1 = system: DLD-1
A549 = system: A549
HCC 2998 = system: HCC 2998
OVCAR-3 = system: OVCAR-3
NCI-H23 = system: NCI-H23
SNB-75 = system: SNB-75
SF-268 = system: SF-268
TK-10 = system: TK-10
SF-295 = system: SF-295
SK-OV-3 = system: SK-OV-3
M14 = system: M14
HOP-62 = system: HOP-62
SK-MEL-5 = system: SK-MEL-5
NCI-H460 = system: NCI-H460
KM-20L2 = system: KM-20L2
SW-620 = system: SW-620
DMS-114 = system: DMS-114
786-0 = system: 786-0
UACC-62 = system: UACC-62
OVCAR-4 = system: OVCAR-4
SK-MEL-28 = system: SK-MEL-28
COLO 205 = system: COLO 205
NCI-H522 = system: NCI-H522
RPMI-8226 = system: RPMI-8226
CCRF-CEM = system: CCRF-CEM
HCT-116 = system: HCT-116
LXFL 529 = system: LXFL 529
SN12C = system: SN12C
DMS-273 = system: DMS-273
EKVX = system: EKVX
OVCAR-8 = system: OVCAR-8
MOLT-4 = system: MOLT-4
IGROV-1 = system: IGROV-1
SNB-78 = system: SNB-78
NCI-H226 = system: NCI-H226
SR = system: SR
UACC-257 = system: UACC-257
A498 = system: A498
ACHN = system: ACHN
Malme-3M = system: Malme-3M
UO-31 = system: UO-31
HOP-92 = system: HOP-92
CAKI-1 = system: CAKI-1
HCT-15 = system: HCT-15
SK-MEL-2 = system: SK-MEL-2
OVCAR-5 = system: OVCAR-5

In the case of `CC1CCC2(CC1)NN=c1s/c(=C\c3ccc(O)cc3)c(=O)n1N2` (stereo unspecified), the GI50 (HT-29) is reported as > 100 µM (inactive), the GI50 (K562) is reported as > 100 µM (inactive) and the GI50 (LOX IMVI) is reported as 81.8 µM (inactive). For the same compound, the GI50 (SF-539) was > 100 µM (inactive), the GI50 (U-251) was > 100 µM (inactive) and the GI50 (HL-60) was > 100 µM (inactive). For the same compound, the GI50 (M19-MEL) was > 100 µM (inactive), the GI50 (HOP-18) was > 100 µM (inactive) and the GI50 (RXF 393) was > 100 µM (inactive). For the same compound, the GI50 (SNB-19) was > 100 µM (inactive), the GI50 (KM12) was > 100 µM (inactive) and the GI50 (XF498) was > 100 µM (inactive). For the same compound, the GI50 (DLD-1) was > 100 µM (inactive), the GI50 (A549) was > 100 µM (inactive) and the GI50 (HCC 2998) was > 100 µM (inactive). The GI50 (OVCAR-3) was > 100 µM (inactive), the GI50 (NCI-H23) was > 100 µM (inactive) and the GI50 (SNB-75) was 63.5 µM (inactive). The GI50 (SF-268) was > 100 µM (inactive), the GI50 (TK-10) was > 100 µM (inactive) and the GI50 (SF-295) was > 100 µM (inactive). For the same compound, the GI50 (SK-OV-3) was > 100 µM (inactive), the GI50 (M14) was > 100 µM (inactive) and the GI50 (HOP-62) was > 100 µM (inactive). The GI50 (SK-MEL-5) was > 100 µM (inactive), the GI50 (NCI-H460) was > 100 µM (inactive) and the GI50 (KM-20L2) was > 100 µM (inactive). For the same compound, the GI50 (SW-620) was > 100 µM (inactive), the GI50 (DMS-114) was > 100 µM (inactive) and the GI50 (786-0) was > 100 µM (inactive). For the same compound, the GI50 (UACC-62) was > 100 µM (inactive), the GI50 (OVCAR-4) was > 100 µM (inactive) and the GI50 (SK-MEL-28) was > 100 µM (inactive). For the same compound, the GI50 (COLO 205) was > 100 µM (inactive), the GI50 (NCI-H522) was > 100 µM (inactive) and the GI50 (RPMI-8226) was > 100 µM (inactive). For the same compound, the GI50 (CCRF-CEM) was > 100 µM (inactive), the GI50 (HCT-116) was > 100 µM (inactive) and the GI50 (LXFL 529) was > 100 µM (inactive). For the same compound, the GI50 (SN12C) was > 100 µM (inactive), the GI50 (DMS-273) was > 100 µM (inactive) and the GI50 (EKVX) was > 100 µM (inactive). The GI50 (OVCAR-8) was > 100 µM (inactive), the GI50 (MOLT-4) was > 100 µM (inactive) and the GI50 (IGROV-1) was > 100 µM (inactive). For the same compound, the GI50 (SNB-78) was > 100 µM (inactive) and the GI50 (NCI-H226) was > 100 µM (inactive).

In the case of `COc1ccc(C2COc3c(ccc(OC)c3OC)C2=O)cc1OC` (stereo unspecified), the GI50 (HT-29) is reported as > 100 µM (inactive), the GI50 (K562) is reported as > 100 µM (inactive) and the GI50 (LOX IMVI) is reported as > 100 µM (inactive). For the same compound, the GI50 (SF-539) was > 100 µM (inactive), the GI50 (U-251) was > 100 µM (inactive) and the GI50 (HL-60) was > 100 µM (inactive). The GI50 (M19-MEL) was > 100 µM (inactive), the GI50 (HOP-18) was > 100 µM (inactive) and the GI50 (RXF 393) was > 100 µM (inactive). The GI50 (SNB-19) was > 100 µM (inactive), the GI50 (SR) was > 100 µM (inactive) and the GI50 (UACC-257) was > 100 µM (inactive). The GI50 (KM12) was > 100 µM (inactive), the GI50 (XF498) was 94.8 µM (inactive) and the GI50 (DLD-1) was > 100 µM (inactive). The GI50 (A549) was > 100 µM (inactive), the GI50 (A498) was > 100 µM (inactive) and the GI50 (HCC 2998) was > 100 µM (inactive). The GI50 (OVCAR-3) was > 100 µM (inactive), the GI50 (NCI-H23) was > 100 µM (inactive) and the GI50 (SNB-75) was > 100 µM (inactive). The GI50 (SF-268) was > 100 µM (inactive), the GI50 (TK-10) was > 100 µM (inactive) and the GI50 (SF-295) was > 100 µM (inactive). For the same compound, the GI50 (SK-OV-3) was > 100 µM (inactive), the GI50 (ACHN) was > 100 µM (inactive) and the GI50 (M14) was > 100 µM (inactive). For the same compound, the GI50 (HOP-62) was > 100 µM (inactive), the GI50 (SK-MEL-5) was > 100 µM (inactive) and the GI50 (NCI-H460) was > 100 µM (inactive). For the same compound, the GI50 (KM-20L2) was > 100 µM (inactive), the GI50 (SW-620) was > 100 µM (inactive) and the GI50 (Malme-3M) was > 100 µM (inactive). For the same compound, the GI50 (DMS-114) was 68.7 µM (inactive), the GI50 (786-0) was > 100 µM (inactive) and the GI50 (UO-31) was > 100 µM (inactive). For the same compound, the GI50 (UACC-62) was > 100 µM (inactive), the GI50 (HOP-92) was > 100 µM (inactive) and the GI50 (OVCAR-4) was > 100 µM (inactive). The GI50 (SK-MEL-28) was > 100 µM (inactive), the GI50 (COLO 205) was > 100 µM (inactive) and the GI50 (NCI-H522) was > 100 µM (inactive). For the same compound, the GI50 (RPMI-8226) was > 100 µM (inactive), the GI50 (CCRF-CEM) was > 100 µM (inactive) and the GI50 (HCT-116) was > 100 µM (inactive). For the same compound, the GI50 (LXFL 529) was > 100 µM (inactive), the GI50 (SN12C) was > 100 µM (inactive) and the GI50 (EKVX) was > 100 µM (inactive). For the same compound, the GI50 (OVCAR-8) was > 100 µM (inactive), the GI50 (MOLT-4) was > 100 µM (inactive) and the GI50 (IGROV-1) was > 100 µM (inactive). For the same compound, the GI50 (SNB-78) was > 100 µM (inactive), the GI50 (NCI-H226) was > 100 µM (inactive) and the GI50 (CAKI-1) was > 100 µM (inactive).

With `O=C(c1ccccc1)c1nnn(Cc2cccc(Cl)c2)c1C(=O)c1ccccc1` the GI50 (HT-29) was > 100 µM (inactive), the GI50 (K562) was > 100 µM (inactive) and the GI50 (LOX IMVI) was > 100 µM (inactive). For the same compound, the GI50 (U-251) was > 100 µM (inactive), the GI50 (HL-60) was > 100 µM (inactive) and the GI50 (M19-MEL) was > 100 µM (inactive). The GI50 (HOP-18) was > 100 µM (inactive), the GI50 (RXF 393) was > 100 µM (inactive) and the GI50 (SNB-19) was > 100 µM (inactive). For the same compound, the GI50 (SR) was > 100 µM (inactive), the GI50 (UACC-257) was > 100 µM (inactive) and the GI50 (KM12) was > 100 µM (inactive). The GI50 (XF498) was > 100 µM (inactive), the GI50 (DLD-1) was > 100 µM (inactive) and the GI50 (HCT-15) was greater than 100 µM. For the same compound, the GI50 (A549) was 25.2 µM (inactive), the GI50 (HCC 2998) was 44 µM (inactive) and the GI50 (OVCAR-3) was > 100 µM (inactive). For the same compound, the GI50 (NCI-H23) was > 100 µM (inactive), the GI50 (SNB-75) was > 100 µM (inactive) and the GI50 (SF-268) was > 100 µM (inactive). For the same compound, the GI50 (SK-MEL-2) was > 100 µM (inactive), the GI50 (TK-10) was > 100 µM (inactive) and the GI50 (SF-295) was > 100 µM (inactive). The GI50 (SK-OV-3) was 34.8 µM (inactive), the GI50 (ACHN) was > 100 µM (inactive) and the GI50 (M14) was > 100 µM (inactive). The GI50 (HOP-62) was > 100 µM (inactive), the GI50 (SK-MEL-5) was 88.3 µM (inactive) and the GI50 (NCI-H460) was 8.17 µM (inactive). For the same compound, the GI50 (KM-20L2) was > 100 µM (inactive), the GI50 (SW-620) was > 100 µM (inactive) and the GI50 (Malme-3M) was > 100 µM (inactive). For the same compound, the GI50 (DMS-114) was 78 µM (inactive), the GI50 (786-0) was > 100 µM (inactive) and the GI50 (UO-31) was > 100 µM (inactive). The GI50 (UACC-62) was > 100 µM (inactive), the GI50 (OVCAR-5) was > 100 µM (inactive) and the GI50 (HOP-92) was > 100 µM (inactive). For the same compound, the GI50 (OVCAR-4) was > 100 µM (inactive), the GI50 (SK-MEL-28) was > 100 µM (inactive) and the GI50 (COLO 205) was 15 µM (inactive). The GI50 (NCI-H522) was > 100 µM (inactive), the GI50 (RPMI-8226) was > 100 µM (inactive) and the GI50 (CCRF-CEM) was > 100 µM (inactive). The GI50 (HCT-116) was > 100 µM (inactive), the GI50 (LXFL 529) was 97.5 µM (inactive) and the GI50 (DMS-273) was > 100 µM (inactive). The GI50 (EKVX) was 44.8 µM (inactive), the GI50 (OVCAR-8) was > 100 µM (inactive) and the GI50 (MOLT-4) was > 100 µM (inactive). The GI50 (IGROV-1) was > 100 µM (inactive), the GI50 (SNB-78) was > 100 µM (inactive) and the GI50 (NCI-H226) was > 100 µM (inactive). For the same compound, the GI50 (CAKI-1) was 98.2 µM (inactive).
